From paper PMC13055374, “Engineered antimicrobial-derived peptides to manipulate mixed microbial systems” (Microbiology Spectrum, 2026)
No end group written: not given here. *: point of attachment. FITC = O=C1OC2(c3ccc(O)cc3Oc3cc(O)ccc32)c2ccc(NC(=S)*)cc21

Columns and labels:
L. seeligeri [1] = assay type: cell-based, Listeria seeligeri; conditions: for antimicrobial activity of conjugated peptides: growth inhibition, Fig. S7 and S9
Method: To determine the potency of the purified pediocin PA-1, we generated kill curves against a range of target bacteria (Fig. 1C). The concentration range tested was 3 pM to 3 μM following 10-fold serial dilutions. […] This is in approximate agreement with the published potency of pediocin PA-1 ([46]). Though the molecular mass of pediocin PA-1 is expected to be 4.5 kDa, we observed the partially purified peptide to migrate with an apparent mass of ~12.5 kDa (Fig. 1B). However, subsequent analysis by LC-MS yielded peaks of multiple m/z with the predominant peak at the expected molecular size of 4.6 kDa (Fig. S4). The purified pediocin PA-1, separated on denaturing but non-reducing SDS-PAGE (since this bacteriocin contains two crucial disulfide bonds), was subjected to agar-overlay assay using L. seeligeri as the indicator organism (Fig. S5).
The antimicrobial spectrum of pediocin PA-1 was assayed using a kill curve. Cultures grown overnight were resuspended in fresh medium at an OD600 of 0.05. EC50 was determined by incubating cells with varying concentrations of pediocin in a 96-well plate, and growth was measured at 600 nm after 24 h.
Figure S7. Growth inhibition of L. seeligeri by modified and unmodified pediocin PA-1.

L. seeligeri [2] = test: Cell-binding assay by flow cytometry; design: species or system Listeria seeligeri; conditions: for pH dependence of binding: pH 4.0, 6.0 and 7.4, Fig. S10
Method: (§1) The binding affinity and avidity of pediocin to various gram-positive and gram-negative bacteria were studied using flow cytometry. Late log-phase cells were washed in the sodium phosphate buffer (5 mM, pH 6.0) and resuspended at an OD600 of 10^–3 in sodium-acetate buffer (25 mM, pH 4.0), sodium phosphate buffer (5 mM, pH 6.0), or sodium phosphate buffer (5 mM, pH 7.4) containing 1% bovine serum albumin (BSA) and 100 mM NaCl. Cells were incubated with varying concentrations of the conjugated peptide at 4°C for 30 min. The unbound peptide was removed by centrifugation, and the pellet was resuspended in its respective binding buffer containing 1% BSA. Flow cytometry was performed on an Attune NxT flow cytometer (Life Technologies/ThermoFisher Scientific, Carlsbad, CA). Data (≥10^4 events were recorded) were recorded using a […] (488 nm) at a voltage of 360 V, and gating was performed on an SSC-A versus SSC-H plot to reduce false events.

L. seeligeri [3] = test: Inhibition of the activity of full-length unmodified synthetic pediocin by truncated FITC peptides (growth inhibition curve); assay type: cell-based, Listeria seeligeri; conditions: Fig. S9
Source text: Despite similar primary structures, the pediocin-like bacteriocins differ in their target cell specificity (i.e., they differ in their antimicrobial spectra) ([49]). By determining the target cell specificity of hybrid bacteriocins containing N- and C-terminal regions from different pediocin-like bacteriocins, it has been shown that the C-termini of these bacteriocins determine target cell specificity ([49], [50]). […] Taking a cue from these studies, we proceeded to investigate whether fragments of pediocin PA-1 could serve as tags to specifically label pediocin-sensitive species without killing them. These could serve as tools to isolate target microorganisms from mixed samples. To this end, we synthesized fluorescein isothiocyanate (FITC)-conjugated versions of pediocin PA-1, a 15-mer (K20–A34) and an extended 30-mer fragment (S15–K43; Fig. S8). We first tested the bioactivity profile of FITC-conjugated pediocin and its fragments. […] Though the inactivity of 15-mer and 30-mer is expected, the loss of activity of pediocin-FITC conjugate could indicate the steric hindrance due to the fluorophore at the N-terminal, which is known to be critical for cell attachment ([53]). To test if this is due to the synthesis of the FITC-conjugate, we conjugated biotin, 7-nitrobenz-2-oxa-1,3-diazole (NBD), and Atto488 to the synthetic pediocin using EDC–NHS coupling (Fig. S6). […]

L. coryniformis = test: Cell-binding assay by flow cytometry; design: species or system Lactobacillus coryniformis
Method: as §1

[4] = system: L. seeligeri in a synthetic community; test: Binding assay in the mixed community: FACS depletion of FITC-labeled cells, 16S sequencing of the fluorescence-negative population; assay type: cell-based, Listeria seeligeri; conditions: before versus after sorting; pH 6.0, 4°C, 30 min; Fig. 4B
Source text: We posited that the pediocin PA-1 characterized here could be a potential tool to modulate the abundance of specific species in an intact microbial community. To this end, we pursued two approaches: (i) using synthetic pediocin PA-1 to deplete specific species by killing and (ii) using FITC-conjugated pediocin PA-1 to deplete specific species by cell sorting. To deplete L. seeligeri by killing, we created a synthetic community of Lacticaseibacillus casei, L. plantarum, L. cremoris, E. faecium, and L. seeligeri and grew it for 2 h. We then split the culture into three parts to which we added 1 μM, 10 μM, or 0 (control) unmodified pediocin PA-1 (Lifetein), respectively. […] Next, we assessed the ability of FITC-conjugated pediocin (Ped-FITC) and its 15-mer version to deplete the target species through cell sorting. Again, we created a synthetic community containing L. seeligeri in abundance and assessed the proportion before and after fluorescence-activated cell sorting (FACS) of FITC-labeled cells. We attempted to sequence the fluorescence-positive population but were unsuccessful due to poor DNA yield. However, the genomic DNA isolated from the fluorescence-negative population indicated depletion of more than 50% in the proportion of L. seeligeri from the synthetic community (Fig. 4B). […]

Bacillus subtilis = test: Cell-binding assay by flow cytometry; conditions: pH 6.0, at the highest concentration (30 μM) tested
Method: as §1

L. cremoris = test: Cell-binding assay by flow cytometry; design: species or system Lactococcus cremoris; conditions: pH 6.0, flow cytometry, 4°C, 30 min; read-out: apparent KD
Method: as §1

Enterococcus faecium = test: Cell-binding assay by flow cytometry; conditions: pH 6.0, Fig. 3C
Method: as §1

L. plantarum = test: Cell-binding assay by flow cytometry; design: species or system Lactiplantibacillus plantarum; conditions: pH 6.0, Fig. 3C
Method: as §1

Substance | antimicrobial activity of conjugated peptides (L. seeligeri [1]) | pH dependence of binding (L. seeligeri [2]) | binding (L. seeligeri [2]; pH 6.0, Fig. 3) | ability to inhibit the activity of the full-length unmodified synthetic pediocin (L. seeligeri [3]) | increase of EC50 relative to the unmodified peptide (L. seeligeri [1]; kill curve, Fig. S7) | maximum fluorescence (L. coryniformis; flow cytometry) | Kd (L. seeligeri [2]; pH 6.0, flow cytometry, 4°C, 30 min, read-out: apparent KD) | depletion in the proportion of L. seeligeri, fluorescence-negative population after FACS [4] | binding (Bacillus subtilis) | binding under acidic conditions (L. coryniformis; Fig. S10) | Kd (L. cremoris) | binding (Enterococcus faecium) | binding (L. plantarum)
30-mer-FITC: FITC-conjugated extended 30-mer fragment (S15–K43) of pediocin PA-1 (SVDWGKATTCIINNGAMAWATGGHQGNHK; also: FITC-conjugated (site not given here); UniProt P29430 33-61, looked up, fragment) | completely abolished | higher MFI at higher pHs | did not show appreciable binding | unable to do so |  |  |  |  |  |  |  |  | 
Ped-488: purified biosynthetic pediocin conjugated to Atto488 using EDC–NHS chemistry (KYYGNGVTCGKHSCSVDWGKATTCIINNGAMAWATGGHQGNHKC; ends and bridges not checked; also: Atto488 conjugated by EDC–NHS chemistry (site not given here); UniProt P29430 19-62, looked up) |  |  |  |  | > 100 fold | 6,300 MFI |  |  |  |  |  |  | 
Pediocin-FITC: synthesized fluorescein isothiocyanate (FITC)-conjugated full-length pediocin PA-1 ({FITC}-KYYGNGVTCGKHSCSVDWGKATTCIINNGAMAWATGGHQGNHKC; ends and bridges not checked; also: two disulfide bonds, pairing not given here; UniProt P29430 19-62, looked up) | completely abolished | strong binding to L. seeligeri at all the tested pHs |  |  |  |  | 0.082 ± 0.011 µM | more than 50% | modest binding | surprisingly poor binding |  |  | 
15-mer-FITC: FITC-conjugated 15-mer fragment (K20–A34) of pediocin PA-1 (KATTCIINNGAMAWA; also: FITC-conjugated (site not given here); UniProt P29430 38-52, looked up, fragment) | completely abolished | higher MFI at higher pHs |  | unable to do so |  |  |  | more than 50% |  |  | 38 ± 4.7 µM | modest binding | modest binding
